This experiment concerns P388 leukemia ip, CD2F1 mice, survival T/C. Put plainly: NCI In Vivo Anticancer Drug Screen. Data for tumor model P388 Leukemia (intraperitoneal) in CD2F1 (CDF1) mice. The note with it: endpoint: median survival time, higher = longer survival. The gist of the method:
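Mice carrying the transplanted tumor received test compound or vehicle. Survival was recorded in each group, and the value is the treated-group measurement divided by that of the vehicle-treated control group.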

Where [1] appears, read: dose: 200.0 mg/kg/injection, schedule: Q01DX009 (ip), vehicle: Klucel (hydroxypropylcellulose) (HPC).
Setting [2] is: dose: 60.0 mg/kg/injection, schedule: Q01DX005 (ip), vehicle: saline with Tween-80.
[3] abbreviates: dose: 120.0 mg/kg/injection, schedule: Q01DX005 (ip), vehicle: saline with Tween-80.
The mark [4] stands for this setting: dose: 240.0 mg/kg/injection, schedule: Q01DX005 (ip), vehicle: saline with Tween-80.
[5] abbreviates: dose: 50.0 mg/kg/injection, schedule: Q01DX009 (ip), vehicle: saline with Tween-80.
[6] abbreviates: dose: 100.0 mg/kg/injection, schedule: Q01DX009 (ip), vehicle: saline with Tween-80.
[7] abbreviates: dose: 200.0 mg/kg/injection, schedule: Q01DX009 (ip), vehicle: saline with Tween-80.
Setting [8] is: dose: 12.5 mg/kg/injection, schedule: Q01DX009 (ip), vehicle: saline with Tween-80.
The mark [9] stands for this setting: dose: 25.0 mg/kg/injection, schedule: Q01DX009 (ip), vehicle: saline with Tween-80.
Where [10] appears, read: dose: 12.5 mg/kg/injection, schedule: Q01DX009 (ip), vehicle: distilled water + Tween-80.
The mark [11] stands for this setting: dose: 25.0 mg/kg/injection, schedule: Q01DX009 (ip), vehicle: distilled water + Tween-80.
[12] abbreviates: dose: 50.0 mg/kg/injection, schedule: Q01DX009 (ip), vehicle: distilled water + Tween-80.
Where [13] appears, read: dose: 100.0 mg/kg/injection, schedule: Q01DX009 (ip), vehicle: distilled water + Tween-80.

“And” between values parts separate entries of the source, which are not always exact repeats. Equal values may be shown once. Toxic doses and inconclusive results are not listed.

With `C=CCC1=CC2(OC)C(=O)C(OC)(OC)C1C1C(OC)(OC)C(=O)C(OC)=CC12CC=C` (centres undefined), the T/C by setting is: (dose: 18.75 mg/kg/injection, schedule: Q01DX009 (ip), vehicle: Klucel (hydroxypropylcellulose) (HPC)) 114 % of control and 93 % of control; (dose: 37.5 mg/kg/injection, schedule: Q01DX009 (ip), vehicle: Klucel (hydroxypropylcellulose) (HPC)) 99 % of control; (dose: 75.0 mg/kg/injection, schedule: Q01DX009 (ip), vehicle: Klucel (hydroxypropylcellulose) (HPC)) 102 % of control and 112 % of control; (dose: 150.0 mg/kg/injection, schedule: Q01DX009 (ip), vehicle: Klucel (hydroxypropylcellulose) (HPC)) 94 % of control; under setting [1], 94 % of control.

Consider `COc1ccc2c(=O)c(Cc3ccccc3)coc2c1`, for which the T/C under setting [2] was 100 % of control, the T/C under setting [3] was 97 % of control and the T/C under setting [4] was 100 % of control.

For the compound `COc1ccc2nc3cc(Cl)ccc3c(Nc3ccccc3NS(C)(=O)=O)c2n1`, the T/C (dose: 12.5 mg/kg/injection, schedule: Q01DX009 (ip), vehicle: other) was 103 % of control; the T/C (dose: 25.0 mg/kg/injection, schedule: Q01DX009 (ip), vehicle: other) was 105 % of control; the T/C (dose: 50.0 mg/kg/injection, schedule: Q01DX009 (ip), vehicle: other) is 105 % of control; the T/C (dose: 100.0 mg/kg/injection, schedule: Q01DX009 (ip), vehicle: other) was 111 % of control and 112 % of control; the T/C (dose: 200.0 mg/kg/injection, schedule: Q01DX009 (ip), vehicle: other) is 106 % of control.

On to `Cc1ccc(S(=O)(=O)N/N=C/c2cccs2)cc1`, for which the T/C was 95 % of control under setting [5]; 87 % of control under setting [6]; 93 % of control under setting [7]; 102 % of control (dose: 400.0 mg/kg/injection, schedule: Q01DX009 (ip), vehicle: saline with Tween-80).

Regarding `COc1ccc(C(=O)Cc2cc3c(cc2Br)OCO3)cc1OC`, the T/C runs as follows: (dose: 100.0 mg/kg/injection, schedule: Q01DX001 (ip), vehicle: Klucel (hydroxypropylcellulose) (HPC)) 101 % of control; (dose: 200.0 mg/kg/injection, schedule: Q01DX001 (ip), vehicle: Klucel (hydroxypropylcellulose) (HPC)) 105 % of control; (dose: 400.0 mg/kg/injection, schedule: Q01DX001 (ip), vehicle: Klucel (hydroxypropylcellulose) (HPC)) 99 % of control.

As to `CCN(CC)CCC(=O)c1ccccc1`, the T/C reads like this: under setting [8], 102 % of control and 89 % of control; under setting [9], 108 % of control; (dose: 25.0 mg/kg/injection, schedule: Q01DX009 (ip), vehicle: saline) 97 % of control; under setting [5], 109 % of control and 91 % of control; (dose: 50.0 mg/kg/injection, schedule: Q01DX009 (ip), vehicle: saline) 96 % of control; under setting [6], 123 % of control.

For the compound `CCC12CN3CCc4c([nH]c5ccccc45)C(C(=O)OC)(c4cc5c(cc4OC)N(C)C4C(O)(C(=O)OC)C(OC(C)=O)C6(CC)C=CCN7CCC54C76)CC(C3=O)C1O2` (centres undefined), the T/C is, setting by setting: (dose: 4.0 mg/kg/injection, schedule: Q01DX001 (ip), vehicle: water) 118 % of control; (dose: 32.0 mg/kg/injection, schedule: Q01DX001 (ip), vehicle: water) 116 % of control; (dose: 64.0 mg/kg/injection, schedule: Q01DX001 (ip), vehicle: water) 169 % of control.

With `CN=C(N)c1ccc(N=C(N)c2ccc(-c3ccc(C(N)=Nc4ccc(C(N)=NC)cc4)cc3)cc2)cc1`, the T/C by setting is: (dose: 18.0 mg/kg/injection, schedule: Q01DX009 (ip), vehicle: saline) 154 % of control; (dose: 625.0 micrograms/kg/injection, schedule: Q01DX009 (ip), vehicle: saline with Tween-80) 91 % of control; (dose: 1250.0 micrograms/kg/injection, schedule: Q01DX009 (ip), vehicle: saline with Tween-80) 108 % of control; (dose: 2500.0 micrograms/kg/injection, schedule: Q01DX009 (ip), vehicle: saline with Tween-80) 108 % of control.

`C=CC[S+]1CCCCC1C=C` (centres undefined): the T/C runs as follows: (dose: 100.0 mg/kg/injection, schedule: Q01DX001 (ip), vehicle: saline with Tween-80) 94 % of control; (dose: 200.0 mg/kg/injection, schedule: Q01DX001 (ip), vehicle: saline with Tween-80) 95 % of control; (dose: 400.0 mg/kg/injection, schedule: Q01DX001 (ip), vehicle: saline with Tween-80) 95 % of control.

Turning to `Cc1ccc(C(O)(C(F)(F)F)C(O)(c2ccc(C)cc2)C(F)(F)F)cc1` (centres undefined), the T/C under setting [5] is 107 % of control and 100 % of control; the T/C under setting [6] is 107 % of control and 104 % of control; the T/C under setting [7] was 101 % of control and 105 % of control.

Turning to `C/C=C1\CNC2Cc3c([nH]c4ccccc34)C(c3c(OC)ccc4c5c([nH]c34)C3(C(=O)OC)CC4CC(CC)C3N(CC5)C4)CC1C2C(=O)OC` (centres undefined), the T/C was 93 % of control (dose: 1.56 mg/kg/injection, schedule: Q01DX009 (ip), vehicle: saline with Tween-80); 90 % of control (dose: 3.12 mg/kg/injection, schedule: Q01DX009 (ip), vehicle: saline with Tween-80); 93 % of control under setting [8]; 90 % of control under setting [9].

With `COc1ccc(OC)c(C(=O)c2cccc(C(=O)c3cc(OC)ccc3OC)n2)c1`, the T/C reads like this: under setting [2], 99 % of control; under setting [3], 109 % of control; under setting [4], 119 % of control.

As for `COC(=O)N1c2ccccc2C(c2ccccc2)=NC1(C)C#N` (centres undefined), the T/C under setting [2] was 98 % of control, the T/C under setting [3] was 99 % of control and the T/C under setting [4] was 100 % of control.

Take `N#CCCn1ncc(=O)[nH]c1=O`: the T/C runs as follows: (dose: 50.0 mg/kg/injection, schedule: Q01DX005 (ip), vehicle: water) 101 % of control; (dose: 100.0 mg/kg/injection, schedule: Q01DX005 (ip), vehicle: water) 104 % of control; (dose: 200.0 mg/kg/injection, schedule: Q01DX005 (ip), vehicle: water) 107 % of control.

For the compound `CSC(=Cc1ccc2cc(Br)ccc2[n+]1C)SC`, the T/C was 110 % of control (dose: 3.12 mg/kg/injection, schedule: Q01DX009 (ip), vehicle: Klucel (hydroxypropylcellulose) (HPC)); 117 % of control and 121 % of control (dose: 6.25 mg/kg/injection, schedule: Q01DX009 (ip), vehicle: Klucel (hydroxypropylcellulose) (HPC)); 107 % of control (dose: 25.0 mg/kg/injection, schedule: Q01DX009 (ip), vehicle: Klucel (hydroxypropylcellulose) (HPC)).

Regarding `COC1=CC(O)(CC(N)=O)c2ccccc2C1=O` (centres undefined), the T/C (dose: 3.13 mg/kg/injection, schedule: Q01DX009 (ip), vehicle: distilled water + Tween-80) is 99 % of control; the T/C (dose: 6.25 mg/kg/injection, schedule: Q01DX009 (ip), vehicle: distilled water + Tween-80) is 100 % of control; the T/C under setting [10] is 98 % of control; the T/C under setting [11] was 102 % of control; the T/C under setting [12] is 92 % of control; the T/C under setting [13] is 92 % of control.

In the case of `Cc1ccc(S(=O)(=O)/N=S(/C)c2ccccc2)cc1` (centres undefined), the T/C is 110 % of control (dose: 100.0 mg/kg/injection, schedule: Q04DX003 (ip), vehicle: saline with Tween-80); 100 % of control (dose: 200.0 mg/kg/injection, schedule: Q04DX003 (ip), vehicle: saline with Tween-80); 120 % of control (dose: 400.0 mg/kg/injection, schedule: Q04DX003 (ip), vehicle: saline with Tween-80).

On to `N#CC1CNC(N)NC1N` (centres undefined), for which the T/C reads like this: (dose: 60.0 mg/kg/injection, schedule: Q01DX005 (ip), vehicle: Klucel (hydroxypropylcellulose) (HPC)) 99 % of control; (dose: 120.0 mg/kg/injection, schedule: Q01DX005 (ip), vehicle: Klucel (hydroxypropylcellulose) (HPC)) 91 % of control; (dose: 240.0 mg/kg/injection, schedule: Q01DX005 (ip), vehicle: Klucel (hydroxypropylcellulose) (HPC)) 90 % of control.

As to `CCC(=O)C(=O)c1ccc(O)cc1O`, the T/C is, setting by setting: (dose: 50.0 mg/kg/injection, schedule: Q01DX009 (ip), vehicle: Klucel (hydroxypropylcellulose) (HPC)) 108 % of control; (dose: 100.0 mg/kg/injection, schedule: Q01DX009 (ip), vehicle: Klucel (hydroxypropylcellulose) (HPC)) 108 % of control; under setting [1], 105 % of control.

For `NCCc1nc(-c2nc(C(=O)Nc3ccccc3)cs2)cs1`, the T/C is 100 % of control under setting [10], 103 % of control under setting [11], 103 % of control under setting [12] and 100 % of control under setting [13].

(Values after PubChem BioAssay AID330 (DTP/NCI, 2004).)
